US4139605A, “Water-soluble, non-ionizing, radiopaque compounds and contrast compositions containing the same” (Bracco Industria Chimica S.p.A., priority 1977, dated 1979)
In brackets after ≈: the same amount, converted by molar mass. Entries after “also recorded” stand apart in the source; their conditions may differ. Where two headings read alike, the source gives them in different places. Each block holds one molecule with its values, some of them ahead of it.

How the values were obtained:
mouse [1] = experiment: Toxicity, LD50 12 days after intravenous injection in mice; format: in vivo; conditions: 12 days after injection
Procedure: Properties of compounds A, B, C, D of this invention, of the chemically nearest known compounds E, F, and of chemically less closely related known radiopaque compounds G, H, I used heretofore for visualizing blood vessels and cavities of the spinal cord and the brain are listed in the Table hereinbelow. Toxicity is listed as LD50 in mg I/kg body weight 12 days after intravenous injection and 48 hours after intracerebral injection in mice. The osmotic pressure was determined at 37° C. in solutions containing 400 mg I per ml, unless specifically noted otherwise, and is indicated in atmospheres.

[2] = Osmotic pressure of aqueous solutions at 37° C.; format: physicochemical
Procedure: (§1) Toxicity is listed as LD50 in mg I/kg body weight 12 days after intravenous injection and 48 hours after intracerebral injection in mice. The osmotic pressure was determined at 37° C. in solutions containing 400 mg I per ml, unless specifically noted otherwise, and is indicated in atmospheres.

mouse [3] = experiment: Toxicity, LD50 48 hours after intracerebral injection in mice; format: in vivo; conditions: 48 hours after injection
Procedure: as §1

[4] = Stability and storage life of solutions; format: physicochemical; conditions: aqueous solutions
[5] = Viscosity of aqueous solutions at body temperature; format: physicochemical; conditions: aqueous solutions containing
[6] = Solubility in water, methanol and ethanol; format: physicochemical
[7] = General toxicity and side effects; format: in vivo; conditions: in words
rabbits = experiment: Intracisternal toxicity, LD50 (48 hours) in rabbits; format: in vivo
Procedure: The preferred compounds of the invention are those identified in the table above by letters B and C. […] LD50 (48 hours) in rabbits is about 233 mg I per kg.

[8] = water, 20° C., read-out: solubility in water

Compound: CC(=O)Nc1c(I)c(C(=O)N[C@H]2C(O)O[C@H](CO)[C@@H](O)[C@@H]2O)c(I)c(N(C)C(C)=O)c1I (stereo partly shown) [F, 3-acetylamino-5-N-methyl-acetylamino-2,4,6-triiodo-benzoyl-glucosamine]
Toxicity, LD50, intravenous (mouse [1]): 10200 mg I/kg
Osmotic pressure ([2]; 400 mg I per ml): 14.7 atm.
Toxicity, LD50, intracerebral (mouse [3]): 1400 mg I/kg

Compound: CC(O)C(=O)Nc1c(I)c(C(=O)NC(CO)CO)c(I)c(C(=O)NC(CO)CO)c1I (stereo not drawn) [E, 5-α-hydroxypropionylamino-2,4,6-triiodo-isophthalic acid-bis-(1,3-dihydroxyisopropylamide)]
Toxicity, LD50, intravenous (mouse [1]): 21800 mg I/kg
Osmotic pressure ([2]; 400 mg I per ml): 22.2 atm.
Toxicity, LD50, intracerebral (mouse [3]): 1500 mg I/kg

Compound: CC(O)C(=O)Nc1c(I)c(C(=O)NCCCOCCOCCOCCOCCCNC(=O)c2c(I)c(NC(=O)C(C)O)c(I)c(C(=O)NC(CO)CO)c2I)c(I)c(C(=O)NC(CO)CO)c1I (stereo not shown) [Compound B, 1,16-bis-[5-(1,3-dihydroxyisopropyl)aminocarbonyl-3-(2-hydroxypropionyl)amino-2,4,6-triiodobenzoylamino]-4,7,10,13-tetraoxahexadecane]
stability of solutions [4]: stable
storage life of solutions [4]: long storage life
viscosity [5]: relatively low viscosity
Toxicity, LD50, intracerebral (mouse [3]): 990 mg I/kg
solubility ([6]; methanol, organic solvent or mixture, boiling methanol, read-out: solubility in methanol): 500 mg/mL (≈ 306 mM)
solubility [6, 8]: ~1000 mg/mL (≈ 611 mM)
side effects [7]: lack of side effects

Compound: CC(=O)Nc1c(I)c(NC(C)=O)c(I)c(C(=O)O)c1I [I, 3,5-bis-acetylamino-2,4,6-triiodobenzoic acid]
Toxicity, LD50, intravenous (mouse [1]): 7600 mg I/kg

solubility in water ([6]; water, in words): readily dissolved in water
Compound: O=C(CO)Nc1c(I)c(C(=O)NCCOCCOCCOCCOCCNC(=O)c2c(I)c(NC(=O)CO)c(I)c(C(=O)NC(CO)CO)c2I)c(I)c(C(=O)NC(CO)CO)c1I [Example 12, 1,14-bis-[5-(1,3-dihydroxyisopropyl)aminocarbonyl-3-hydroxy-acetylamino-2,4,6-triiodo-benzoylamino]-3,6,9,12-tetraoxa-tetradecane]

solubility ([6]; water, per 100 ml, 20° C., read-out: solubility in water): > 1000 mg/mL
Compound: CC(O)C(=O)Nc1c(I)c(C(=O)NCCOCCNC(=O)c2c(I)c(NC(=O)C(C)O)c(I)c(C(=O)NC(C)(CO)CO)c2I)c(I)c(C(=O)NC(C)(CO)CO)c1I (stereo not shown) [Example 11, 1,5-Bis-[5-(1,3-dihydroxy-2-methyl-2-propyl)aminocarbonyl-3-(2-hydroxypropionyl)amino-2,4,6-triiodo-benzoylamino]-3-oxapentane]

Compound: CNC(=O)c1c(I)c(NC(=O)CCCCC(=O)Nc2c(I)c(C(=O)O)c(I)c(C(=O)NC)c2I)c(I)c(C(=O)O)c1I [G, 5,5'-adipoyldiimino-bis-(2,4,6-triiodo-N-methyl-isophthalamic acid)]
Toxicity, LD50, intravenous (mouse [1]): 5500 mg I/kg
Osmotic pressure ([2]; 280 mg I/ml): 27.5 atm.
Toxicity, LD50, intracerebral (mouse [3]): 600 mg I/kg

Compound: CNC(=O)c1c(I)c(NC(=O)CN(CC(=O)Nc2c(I)c(C(=O)O)c(I)c(C(=O)NC)c2I)CC(=O)Nc2c(I)c(C(=O)O)c(I)c(C(=O)NC)c2I)c(I)c(C(=O)O)c1I [H, 5,5',5"-(nitrilotriacetyl-triimino-tris-)-2,4,6-triiodo-N'-methyl-isophthalamic acid]
Toxicity, LD50, intravenous (mouse [1]): 5800 mg I/kg
Osmotic pressure ([2]; 400 mg I per ml): 36.2 atm.

solubility in water ([6]; water, in words): dissolves readily in water
Compound: CC(O)C(=O)Nc1c(I)c(C(=O)NCCCOCCOCCOCCOCCCNC(=O)c2c(I)c(NC(=O)C(C)O)c(I)c(C(=O)NC(C)(CO)CO)c2I)c(I)c(C(=O)NC(C)(CO)CO)c1I (stereo not shown) [Example 9, 1,16-bis-[5-(1,3-dihydroxy-2-methyl-2propyl)aminocarbonyl-3-(2-hydroxypropionyl)amino-2,4,6-triiodo-benzoylamino]-4,7,10,13tetraoxahexadecane]

Compound: CC(O)C(=O)Nc1c(I)c(C(=O)NCCOCCOCCNC(=O)c2c(I)c(NC(=O)C(C)O)c(I)c(C(=O)NC(CO)CO)c2I)c(I)c(C(=O)NC(CO)CO)c1I (stereo not shown) [Compound A, 1,8-bis-[5,-(1,3-dihydroxyisopropyl)aminocarbonyl-3-(2-hydroxypropionyl)amino-2,4,6-triiodo-benzoylamino]-3,6,dioxaoctane]
Osmotic pressure ([2]; 400 mg I per ml): 8.15 atm.
Toxicity, LD50, intracerebral (mouse [3]): 1100 mg I/kg
solubility in ethanol ([6]; boiling ethanol): about 2.5%
solubility in ethanol ([6]; ethanol, in words): sparingly soluble in ethanol
solubility in ethanol ([6]; ethanol, room temperature): about 1%
solubility in methanol ([6]; methanol, in words): soluble in methanol
solubility [6, 8]: ~500 mg/mL (≈ 329 mM)
solubility ([6]; water, boiling temperature, read-out: solubility in water): ~1000 mg/mL (≈ 658 mM)

Compound: CC(O)C(=O)Nc1c(I)c(C(=O)NC(CO)CO)c(I)c(C(=O)N(C)CCCOCCOCCOCCOCCCN(C)C(=O)c2c(I)c(NC(=O)C(C)O)c(I)c(C(=O)NC(CO)CO)c2I)c1I (stereo not shown) [Compound D, 1,16-bis-[N-methyl-N-{5-(1,3-dihydroxyisopropyl)aminocarbonyl-3-(2-hydroxypropionyl)amino-2,4,6-triiodobenzoyl}amino]-4,7,10,13-tetraoxahexadecane]
Osmotic pressure ([2]; 400 mg I per ml): 9.42 atm.
Toxicity, LD50, intracerebral (mouse [3]): 1420 mg I/kg
solubility in methanol ([6]; methanol, in words): soluble in methanol
solubility in water ([6]; water, in words): dissolves very readily in water; also recorded: readily dissolved in water

Compound: CC(O)C(=O)Nc1c(I)c(C(=O)NC(CO)CO)c(I)c(C(=O)N(C)CCOCCOCCOCCN(C)C(=O)c2c(I)c(NC(=O)C(C)O)c(I)c(C(=O)NC(CO)CO)c2I)c1I (stereo not shown) [Compound C, 1,11-bis [N-methyl-N-{5-(1,3-dihydroxyisopropyl)aminocarbonyl-3-(2-hydroxypropionyl)amino-2,4,6-triiodobenzoyl}-amino]-3,6,9-trioxaundecane]
stability of solutions [4]: stable
storage life of solutions [4]: long storage life
Toxicity, LD50, intravenous (mouse [1]): 14000 mg I/kg
Osmotic pressure ([2]; 400 mg I per ml): 10.59 atm.
viscosity [5]: relatively low viscosity
Toxicity, LD50, intracerebral (mouse [3]): 1130 mg I/kg
solubility in ethanol ([6]; ethanol, in words): only moderately well in ethanol
solubility in water ([6]; water, in words): dissolves readily in water
intracisternal toxicity (rabbits; in words): particularly low
LD50 (48 hours), intracisternal (rabbits; rabbits, 48 hours): about 233 mg I per kg
side effects [7]: lack of side effects

solubility in water ([6]; water, in words): dissolved readily in water
Compound: CC(O)C(=O)Nc1c(I)c(C(=O)NCCOCCOCCOCCOCCNC(=O)c2c(I)c(NC(=O)C(C)O)c(I)c(C(=O)NC(C)(CO)CO)c2I)c(I)c(C(=O)NC(C)(CO)CO)c1I (stereo not shown) [Example 10, 1,14-bis-[5-(1,3-dihydroxy-2methyl-2-propyl)aminocarbonyl-3-(2-hydroxypropionyl)amino-2,4,6-triiodo-benzoylamino]-3,6,9,12-tetraoxatetradecane]
